Experiments:
Settings in all cases: in vivo
[1] = target: T1, ATP-binding cassette sub-family C member 2 (Rattus norvegicus, UniProt Q63120); test: TP_TRANSPORTER: inhibition of GR biliary excretion (70.8->23.5 % of dose, DBSP: 3 uM/min/kg iv infusion, GR: 10 mg/kg iv) in SD rat; type: functional, organism-based, Sprague-Dawley, Bile; design: dose 10 mg/kg, route intravenous
[2] = target: T1, ATP-binding cassette sub-family C member 2; test: TP_TRANSPORTER: inhibition of GR biliary excretion (70.8->23.5 % of dose, DBSP: 3 uM/min/kg iv infusion, GR: 10 mg/kg iv) in EHBR rat; type: functional, organism-based, Bile; design: dose 10 mg/kg, route intravenous
[3] = target: T1, ATP-binding cassette sub-family C member 2; test: TP_TRANSPORTER: biliary excretion in EHBR rat; type: functional, organism-based, Bile
[4] = target: T1, ATP-binding cassette sub-family C member 2; test: TP_TRANSPORTER: biliary excretion in SD rat; type: functional, organism-based, Sprague-Dawley, Bile

T1 sequence (Q63120 whole entry, the tested form may be a part): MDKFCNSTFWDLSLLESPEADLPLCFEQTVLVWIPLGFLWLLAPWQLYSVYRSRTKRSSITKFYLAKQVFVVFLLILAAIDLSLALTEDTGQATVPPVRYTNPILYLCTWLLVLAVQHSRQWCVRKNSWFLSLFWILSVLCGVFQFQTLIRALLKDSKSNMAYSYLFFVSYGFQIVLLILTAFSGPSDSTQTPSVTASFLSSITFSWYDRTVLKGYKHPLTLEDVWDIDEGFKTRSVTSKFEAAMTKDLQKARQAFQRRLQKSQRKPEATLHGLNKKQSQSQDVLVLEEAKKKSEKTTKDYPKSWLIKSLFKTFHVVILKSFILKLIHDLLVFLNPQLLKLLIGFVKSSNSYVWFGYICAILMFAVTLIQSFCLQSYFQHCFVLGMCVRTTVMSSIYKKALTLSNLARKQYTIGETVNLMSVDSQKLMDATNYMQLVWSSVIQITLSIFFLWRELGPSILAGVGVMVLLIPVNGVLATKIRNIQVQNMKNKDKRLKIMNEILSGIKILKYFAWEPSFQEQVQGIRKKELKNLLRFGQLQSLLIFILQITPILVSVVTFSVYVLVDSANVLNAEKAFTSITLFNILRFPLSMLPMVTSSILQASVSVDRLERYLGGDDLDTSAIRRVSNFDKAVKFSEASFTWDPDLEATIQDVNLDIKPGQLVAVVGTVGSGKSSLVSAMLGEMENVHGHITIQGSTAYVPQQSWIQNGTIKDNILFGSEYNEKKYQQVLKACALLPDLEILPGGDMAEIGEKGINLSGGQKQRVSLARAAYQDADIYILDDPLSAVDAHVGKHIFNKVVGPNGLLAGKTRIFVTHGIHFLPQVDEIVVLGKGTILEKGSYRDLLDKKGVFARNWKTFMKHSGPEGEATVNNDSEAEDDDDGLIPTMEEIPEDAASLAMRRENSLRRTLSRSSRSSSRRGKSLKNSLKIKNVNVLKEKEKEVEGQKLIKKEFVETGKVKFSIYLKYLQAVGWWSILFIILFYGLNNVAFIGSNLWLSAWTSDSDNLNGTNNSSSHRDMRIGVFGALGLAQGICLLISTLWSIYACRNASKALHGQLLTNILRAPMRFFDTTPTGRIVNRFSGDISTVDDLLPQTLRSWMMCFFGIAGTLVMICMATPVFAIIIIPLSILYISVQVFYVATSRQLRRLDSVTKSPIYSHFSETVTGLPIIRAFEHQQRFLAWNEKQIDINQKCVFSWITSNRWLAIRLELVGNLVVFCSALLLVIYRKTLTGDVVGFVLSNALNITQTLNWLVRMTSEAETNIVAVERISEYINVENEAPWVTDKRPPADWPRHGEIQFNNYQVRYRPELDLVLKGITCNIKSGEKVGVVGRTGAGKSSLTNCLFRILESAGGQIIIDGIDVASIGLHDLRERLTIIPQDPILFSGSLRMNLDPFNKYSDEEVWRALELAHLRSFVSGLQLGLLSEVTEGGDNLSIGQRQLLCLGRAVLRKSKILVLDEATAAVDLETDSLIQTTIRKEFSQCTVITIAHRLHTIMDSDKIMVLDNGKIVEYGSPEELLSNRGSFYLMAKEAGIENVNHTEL

Activity [1] | Activity [2] | Activity [3] | Activity [4] | Compound
inhibitor [+] | inhibitor [+] |  |  | O=C1OC(c2ccc(OS(=O)(=O)O)cc2)(c2ccc(OS(=O)(=O)O)cc2)c2c(Br)ccc(Br)c21 [DIBROMOSULFOPHTHALEIN]
 |  | substrate [+] | substrate [+] | CC1(C)[C@@H](O[C@H]2O[C@H](C(=O)O)[C@@H](O)[C@H](O)[C@H]2O[C@@H]2O[C@H](C(=O)O)[C@@H](O)[C@H](O)[C@H]2O)CC[C@]2(C)[C@H]3C(=O)C=C4[C@@H]5C[C@@](C)(C(=O)O)CC[C@]5(C)CC[C@@]4(C)[C@]3(C)CC[C@@H]12 [GLYCYRRHIZIN]

Source: ChEMBL document CHEMBL2073833, “Biliary excretion of glycyrrhizin in rats: kinetic basis for multiplicity in bile canalicular transport of organic anions” (Pharm Res, 1996)
